Data published in patent US6087391A, “Method of rendering organic compounds soluble in fatty systems, novel chemical complexes of such compounds and various applications of the complexes” (priority 1994, dated 2000).

Assay: Simulation of bioavailability: availability of test compound in standardised enteric juice
Details: enteric juice pH 8.3, 37 degrees Celsius; mean over the entire experiment (60-240 minutes); mean of two experiments
Experimental: 5 g of test compound either pure or in ethanolic solution was mixed with 5-20 g of the below mentioned carrier. After vigorously mixing ethanol was removed by evaporation.
The following carrier was used: diacetylated monoglyceride with the following fatty acid composition based on the monoglyceride: about 50% lauric acid (12:0), 20% myristic acid (14:0), 15% caprylic/capric acid (8:0 and 10:0) and 10% palmitic acid (16:0).
The pH was adjusted to 8.3.
0.500 g complex and 50 ml of standardised enteric juice was mixed in a 100 ml vessel and placed on a shaking water bath at 37 degrees Celsius under moderate agitation. As controls pure test compound corresponding to 0.500 g complex was used instead of 0.500 g complex.
Samples of 1.000 ml were collected after 60, 120, 180 and 240 minutes. The samples were extracted with 1.5 ml of 1-butanol. The concentration of test compound in the enteric juice was determined by an appropriate method (spectrophotometrically or by HPLC).

availability in the complex form compared to pure test compound: 2,2 times
Compound: COC1=C(OC)C(=O)C(C/C=C(\C)CC/C=C(\C)CC/C=C(\C)CC/C=C(\C)CC/C=C(\C)CC/C=C(\C)CC/C=C(\C)CC/C=C(\C)CC/C=C(\C)CCC=C(C)C)=C(C)C1=O [Q10, coenzyme Q10]
